# Test results taken from PMC6843736 (Molecular Pain, 2019).
# Values joined by “and” are separate entries in the source; they are usually repeats but may differ in a detail not shown here. Equal entries are not always repeated.
# Experiments:
# [1] = tested on: rats with trigeminal chronic constriction injury (CCI); test: Whisker pad mechanical allodynia; format: in vivo, rat; conditions: for attenuation of mechanical allodynia: doses as high as 1000 mg/kg
# [2] = Pharmacokinetic/toxicokinetic study and BBB permeability in rats; format: in vivo, rat; conditions: 10 mg/kg
# mice with TIC injury [3] = test: Light/dark place preference anxiety test in mouse chronic TIC model; format: in vivo; conditions: six weeks, two hours after injection
# mice with TIC injury [4] = test: Whisker pad mechanical allodynia; format: in vivo, mouse
# mice with TIC injury [5] = test: Zero maze anxiety test in mouse chronic TIC model; format: in vivo; conditions: six weeks, 2 h post treatment
# [6] = male, Sprague-Dawley, rat, plasma, ip
# [7] = ELB00824 10 mg/kg i.p., carbamazepine 30 mg/kg i.p.
compound,measurement,setting,value
"NCC1(CC(=O)O)CCCCC1 [gabapentin, reference compound]",time at which threshold was reduced to previous allodynic levels,[1]; 1 mg/kg single i.p. injection,2 h
same,dose dependence of mechanical threshold at peak time,"[1]; 2 h after treatment (gabapentin 1 h), i.p. or p.o.",dose-dependently increased the mechanical threshold
same,mechanical threshold 1 h after injection,"[1]; ELB00824 3 mg/kg i.p. and/or gabapentin 0.3 mg/kg i.p., one-time dose",4.9 ± 1.2 g
same,peak time of mechanical threshold,[1]; i.p. or p.o. treatment,1 h
"CN(CCOc1ccc(CC2SC(=O)NC2=O)cc1)c1ccccn1 (stereo not shown) [Rosiglitazone, rosiglitazone, reference compound]",attenuation of mechanical allodynia,[1],did not attenuate mechanical allodynia
same,AUC(0-t),[2]; [6],22800 ng·h/mL and 63.7 µM·h
same,Cmax,[2]; [6],4500 ng/mL and 12.6 µM
same,Brain Cmax,"[2]; rat brain, 10 mg/kg i.p.",0.50 ± 0.06 μg/mL and 1.41 ± 0.27 μM
"NC(=O)N1c2ccccc2C=Cc2ccccc21 [carbamazepine, reference compound]",latency to enter into the lighted chamber,mice with TIC injury [3],decreased latency
same,"allodynia compared to vehicle, ipsilateral side, week 6",mice with TIC injury [4]; [7],significantly improved allodynia
same,"whisker pad mechanical threshold at 2 h post injection, week 3",mice with TIC injury [4]; [7],1.4 ± 0.2 g
same,time of peak effect,"mice with TIC injury [4]; week 3, one-time i.p. dose",2 h
same,latency to move to the closed area,mice with TIC injury [5],significantly increased latency
same,zone transitions,mice with TIC injury [5]; vs vehicle,significantly more
same,time spent in the closed area of the maze,"mice with TIC injury [5]; ELB00824 10 mg/kg, carbamazepine 30 mg/kg",did not show significant differences
"CC(C)Cc1ccc(C(C)C(=O)O)cc1 (stereo not shown) [ibuprofen, reference compound]",attenuation of mechanical allodynia,[1],neither acetaminophen nor ibuprofen attenuated mechanical allodynia
